Where “and” joins values, the source holds several entries; their conditions need not be identical. Identical values can stand only once.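 Briefly, cells in 96-well plates were exposed to five compound concentrations for 48 h, and endpoints were estimated by linear interpolation. Here, GI50 denotes the concentration required for 50% inhibition of growth. TGI: concentration producing complete growth inhibition.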
Tests used:
Experiment in all cases: growth of human tumour cells (NCI), 48 h
[1] = test system: SW-620 colon
[2] = test system: MDA-MB-231 breast
[3] = test system: SR leukemia
[4] = test system: SF-295 CNS
[5] = test system: SK-OV-3 ovarian
[6] = test system: EKVX NSCLC
[7] = test system: NCI-H226 lung
[8] = test system: HL-60(TB) leukemia
[9] = test system: SNB-75 CNS
[10] = test system: HCT-116 colon

SMILES	GI50 [1]	TGI [1]	GI50 [2]	TGI [2]	GI50 [3]	TGI [3]	GI50 [4]	TGI [4] [µM]	GI50 [5]	TGI [5]	GI50 [6]	TGI [6]	GI50 [7]	TGI [7] [µM]	GI50 [8]	TGI [8]	GI50 [9]	TGI [9]	GI50 [10]	TGI [10]
COc1ccc(-c2c(-c3cc(OC)c4c(c3)OCO4)noc2N)cc1	0.0289 µM	> 100 µM	0.181 µM	16.9 µM	< 0.0104 µM	> 36.6 µM	0.0197 µM	23.8	0.032 µM	1.29 µM	1.74 µM	> 71.3 µM	0.0883 µM	4.07	0.0351 µM	13.7 µM	0.0339 µM	58.5 µM	0.0438 µM	19.5 µM
CC(=O)[O][Hg][c]1ccccc1	0.215 µM	0.492 µM	0.732 µM	2.09 µM	0.143 µM	0.537 µM	1.61 µM	3.57	1.37 µM	2.68 µM	1.46 µM	3.98 µM	1.12 µM	4.81	0.201 µM	0.487 µM	0.771 µM	2.2 µM	0.264 µM	0.667 µM
C=C1C(=O)O[C@H]2[C@H]1CC/C(COC(=O)c1ccc(C#N)cc1)=C\CC[C@@]1(C)O[C@@H]21	1.27 µM	2.88 µM	2.2 µM	5.24 µM	0.548 µM	> 100 µM	8.16 µM	20.7	15.8 µM	29.2 µM	2.26 µM	6.85 µM	2.26 µM	7.6	1.67 µM	7.47 µM	7.23 µM	21.4 µM	1.42 µM	2.77 µM
C/C(Cc1ccc(Cl)cc1)=C(/c1ccc(Cl)cc1)c1ccc(OCCN(C)C)cc1	1.67 µM	6.1 µM	4.27 µM	8.71 µM	0.991 µM	3.81 µM	5.5 µM	10.3	5.42 µM	10.5 µM	4.75 µM	9.22 µM	4.99 µM	10.5	3.89 µM	10 µM	3.47 µM	7.93 µM	3.03 µM	8.74 µM
Cc1nc2n(c(=O)c1CCN1CCC(c3noc4cc(F)ccc34)CC1)CCCC2	> 50 µM	> 50 µM	> 50 µM	> 50 µM	> 50 µM	> 50 µM	> 50 µM	> 50	> 50 µM	> 50 µM	> 50 µM	> 50 µM	> 50 µM	> 50	> 50 µM	> 50 µM	> 50 µM	> 50 µM	> 50 µM	> 50 µM
O=C(O)c1ccc2c(c1)nc(Nc1cccc(Cl)c1)c1ccncc12	3.1 µM and 3.97 µM	26.5 µM and > 10 µM	4.18 µM and 3.57 µM	34.2 µM and > 10 µM	2.04 µM and 2.63 µM	6.3 µM and 9.2 µM	2.74 µM and 3.17 µM	> 42.9	2.98 µM and 2.42 µM	11.6 µM and 7.52 µM	3.46 µM and 4.04 µM	23.9 µM and > 10 µM	1.77 µM and 2.77 µM	> 20.3	2.88 µM and 4.98 µM	7.67 µM and > 10 µM	1.44 µM and 1.67 µM	6.33 µM and 7.53 µM	2.39 µM and 2.82 µM	8.69 µM and > 10 µM
CSc1ccc(/C=C/c2ccnc3ccccc23)cc1		27 µM		30.8 µM		32.9 µM		27.5		33.3 µM		22.3 µM		29		24.4 µM		44.6 µM		22.3 µM
Cc1nc(N)sc1C(=O)Nc1cc(C(=O)NCCCN(C)C)n(C)c1	> 100 µM	> 100 µM	> 100 µM	> 100 µM	> 100 µM	> 100 µM	> 100 µM	> 100	> 100 µM	> 100 µM	> 100 µM	> 100 µM	> 100 µM	> 100	> 100 µM	> 100 µM	> 100 µM	> 100 µM	> 100 µM	> 100 µM
CCc1nc(N)nc(N)c1-c1ccc(NCCc2ccccc2)c([N+](=O)[O-])c1		> 79.4 µM		> 88.9 µM		24 µM		32.9		> 74.6 µM		54 µM		> 69.7		6.77 µM		47.3 µM		36.7 µM
Cc1ccc(S(=O)(=O)Cc2nc(-c3ccc(C(=O)NCc4cccnc4)cc3)oc2C)cc1	< 0.01 µM	> 100 µM	5.78 µM	> 100 µM	0.514 µM	> 100 µM	9.34 µM	> 100	14.5 µM	> 100 µM	> 100 µM	> 100 µM	> 100 µM	> 100	1.97 µM	> 100 µM	4.73 µM	47.9 µM	< 0.01 µM	> 100 µM
COc1ccc(-c2csc(-c3cc(Cl)cc(Cl)c3Cl)n2)cc1	42.4 µM	> 100 µM	60 µM	> 100 µM	7.05 µM	32.4 µM	57.8 µM	> 100	96.8 µM	> 100 µM	59.9 µM	> 100 µM	78 µM	> 100	78.3 µM	> 100 µM	40 µM	> 100 µM	> 100 µM	> 100 µM
COc1ccc(-c2cc(=O)c3c(O)cc(C)cc3o2)cc1OC		> 100 µM		> 100 µM		> 100 µM		> 100		> 100 µM		> 100 µM		> 100		> 100 µM		> 100 µM		> 100 µM
C[C@H]1C(Oc2ccc(O)cc2)OC2OC3(C)CCC4[C@H](C)CCC1C24OO3 (some centres undefined)	8.74 µM	43.2 µM	15.8 µM	30.9 µM		> 100 µM	16.2 µM	34.5	21.1 µM	47.8 µM	6.42 µM	23.1 µM	15.9 µM	31.2	0.57 µM	24.4 µM	17.6 µM	39.3 µM	8.56 µM	25 µM

Reference: PubChem BioAssay (NCI)
